Measured values reported in patent US20050267050A1, “Compositions and methods for treating mdma-induced toxicity” (YEDA RESEARCH AND DEVELOPMENT CO. LTD., priority 2002, published 2005).

Legend:
Format in all cases: in vivo
MC2, MG2 and MG4 cDNAs = experiment: Semi-quantitative RT-PCR of brain mRNA of MDMA-treated mice; settings: FIG. 2B, MDMA 10 mg/kg i.p., 2 hr
MG5 cDNA = experiment: DD-PCR analysis of brain mRNA of MDMA-treated mice; set-up: key: − (lowest); ++ (highest); settings: MDMA one i.p. injection, 10 mg/kg, 2 hr
Experimental: (§1) Young adult male C57BI/6J mice (2-3 months old) were injected intraperitoneally with 0.25 ml saline (control) or saline containing MDMA (10 mg/kg). Unless otherwise indicated, mice were sacrificed 2 hr after drug treatment and frontal cortex and/or midbrain were rapidly dissected in ice-cold saline. The dissected brain tissue was frozen on dry ice, 0.5 ml Tri Reagent was added, and samples were stored at −70° C. Serotonin transporter knockout mice (−/−) (Bengel et al., 1998) were used when indicated.
(§2) Frontal cortex or midbrain samples frozen with Tri Reagent were crushed, 1 ml Tri Reagent was added and total RNA was isolated according to the manufacture's protocol. RNA samples were treated with RNase-free DNase I for 30 minutes at 37° C. and RNA quality and yield was verified on 1.2% formaldehyde agarose gel. First-strand cDNA was prepared from 0.5 μg total RNA as template and 0.8 μM (dT)12GC, (dT)12CC or oligo(dT)18 as a primer, using Superscript amplification kit. DD-PCR (differential display-PCR) was carried out in 20 μl total volume, and included 0.8 μM of one of the 3′ primers (dT)12GC, (dT)12CC or (dT)12, the arbitrary 5′ primer 5′-GGACAGCTTC-3′, 2.5 μM dNTP, 2.5 mM MgCl2, 2 μCi α-^33P-[dATP] (3000 Ci/mM), cDNA prepared from 50 ng total RNA, and 2.5 units of Taq DNA polymerase. The DD-PCR reaction was started with 3 minutes incubation at 94° C., followed with 40 cycles of 30 sec at 94° C., 2 minutes at 40° C. and 30 sec at 72° C., and finally 5 minutes at 72° C. Then, 10 μl of the reaction was mixed with 10 μl of 95% formamide containing 0.05% bromophenol blue and 0.05% xylene cyanol, and incubated for 5 minutes at 75° C. An aliquot (6 μl) was analysed on a denatured DNA sequencing gel. The gel was dried and exposed to Phosphoimage Analyzer (Fujix) or to X-ray film. The DNA bands expressed differentially upon MDMA-treatment were identified, cut from the gel, socked in H2O, boiled for 15 minutes and centrifuged (10000 g). Ten μl of the supernatant was used as template to re-amplify the band of interest, with the same primers and PCR conditions described for DD-PCR except that 25 μM dNTP and no isotopes were used. Ten μl of the PCR reaction was run on a 2% agarose gel. The band of the predicted size was excised, purified with DNA extraction kit, and cloned into pGEM-T Easy Vector. Plasmid DNA from successful clones was purified with Plasmid Mini Kit and subjected for sequencing (Biological Services, Weizmann Institute of Science). Sequence data were compared with GeneBank (NCBI).
(§3) Total RNA from frontal cortex (“FC”) and midbrain (“MB”) of saline—(denoted as “−”) and MDMA-treated (denoted as “+”) mice (one i.p. injection, 10 mg/kg, 2 hr) were used for DD-PCR analysis. The random primers used were dT12CC for MC1, dT12GG for MG3, MG4, MG5 and MG6, and dT18 for G1. Different but characteristic cDNA products were obtained with each one of the three primers. […] Some of the altered expression levels are common for both brain regions while others are specific either to the frontal cortex or the midbrain.

MG3 cDNA = experiment: DD-PCR analysis of brain mRNA of MDMA-treated mice; set-up: key: − (lowest); ++ (highest); settings: MDMA one i.p. injection, 10 mg/kg, 2 hr
Experimental: as §1, §2, §3

MG2 cDNA = experiment: DD-PCR analysis of brain mRNA of MDMA-treated mice; set-up: key: − (lowest); ++ (highest); settings: MDMA one i.p. injection, 10 mg/kg, 2 hr; frontal cortex
Experimental: as §1, §2, §3

MC2 cDNA = experiment: DD-PCR analysis of brain mRNA of MDMA-treated mice; set-up: key: − (lowest); ++ (highest); settings: MDMA one i.p. injection, 10 mg/kg, 2 hr
Experimental: as §1, §2, §3

mGAT4 [1] = experiment: Semi-quantitative RT-PCR of brain mRNA of MDMA-treated mice; settings: for Increase of mGAT4 mRNA level: MDMA 10 mg/kg i.p., 2 hr, GAPDH for semi-quantitation; for Return of mGAT4 increase to control levels: within 2 days
mGAT1 protein = experiment: Western immunoblotting with anti-GAT1 antibodies, MDMA-treated mice; settings: for GAT1 protein, fold of control: SERT knockout (−/−) mice; for Increase of GAT1 immunoreactivity: wild type mice
Experimental: as §1
Protein was isolated with Tri Reagent according to the protocol provided by the manufacturer. After precipitation with isopropanol, the protein pellet was washed three times with 0.3M guanidine hydrochloride and 95% ethanol, followed by washing with ethanol, dried, and dissolved in 10 M urea containing 50 mM dithiothreitol (DTT). Samples were kept at room temperature for 1 hr before boiling for 3 minutes, sonicated on ice for 2 minutes, and stored at −20° C. Protein concentration was determined with the micro BCA protein assay reagent kit. Samples of 30 μg protein run on SDS-PAGE (5% stacking gel and 8% or 10% separating gel), with Kaleidoscope pre-stained standard proteins as molecular weight markers. The proteins were transferred to nitrocellulose membranes preincubated for 2 hr in Tris-buffered saline (TBS) with 10% non-fat dry milk and 0.1% Tween 20, and incubated overnight at 4° C. or 2 hr at room temperature with anti-GAT1 antibodies (1:500 in TBS containing 5% non-fat dry milk). Membranes were then washed three times with TBS containing 0.1% Tween 20, incubated for 2 hr at room temperature with the second antibody, horseradish peroxidase coupled to F(ab)2 anti-rabbit IgG, washed four times with the same buffer, and subjected to ECL Western immublotting detection reagents.
It was essential to determine whether the MDMA-induced increase in mGAT1 mRNA was correlated with a similar change in protein level. […] These anti-GAT1 antibodies were also useful to verify MDMA effect on the expression of mGAT1 in the SERT knockout mice (−/−) that behaviorally are nonresponsive to MDMA (Bengel et al., 1998).

mGAT4 [2] = experiment: Real-time PCR analysis of midbrain RNA of MDMA-treated mice
Experimental: as §1
(§4) Real-time PCR analysis was performed with the LightCycler System (Roche Molecular Biochemicals) and LightCycler-FastStart DNA Master SYBR Green I, according to the manufacturer instructions. Reactions (in 20 μl) included template cDNA prepared from 0.1-0.5 μg total RNA, 3 mM MgCl2 and 0.25-0.5 μM primers. Buffer, dNTP mixture (with dUTP instead of dTTP), Taq DNA polymerase, and SYBR Green I dye were included in the ‘Hot start’ reaction as recommended. Typical protocol was as follows. Ten minutes at 95° C. followed by 40 cycles of amplification, starting with 15 sec at 95° C., 10 sec at 60° C. and 10 sec at 72° C. The extension period varied with each specific primer, depending on the product length (about 1 sec/25 bp).
(§5) For quantification analysis, 3-5 standards of PCR products with known concentration were amplified under the same cycling conditions, and GAPDH was amplified as an internal control to correct for variations in the amount of cDNA. Real-time PCR products of each assay were also subjected to agarose gel electrophoresis, to further confirm amplification specificity. Quantitation was assessed with LightCycler Data Analysis (LCDA) software by the Fit Points method. Melting curve of the cDNA product was determined by incubation at 95° C. for 0 sec, 15 sec at 65° C. and 0 sec at 95° C., followed by a cooling of 30 sec at 40° C.
(§6) RNA extracted from the midbrain of saline- or MDMA-treated mice was analyzed with the LightCycler System, using specific primers for mGAT1 and mGAT4, along with GAPDH as a control (see Materials and Methods). […] (FIG. 4F).

GAPDH = experiment: as above
Experimental: as §1, §4, §5, §6

mGAT1 [3] = experiment: as above
Experimental: as §1, §4, §5, §6

G1 cDNA (mGAT1) = experiment: DD-PCR analysis of brain mRNA of MDMA-treated mice; set-up: key to Intensity of G1 cDNA band, MDMA, F. Cortex: − (lowest); ++ (highest); settings: 2 hr
Experimental: as §1
Frontal cortex or midbrain samples frozen with Tri Reagent were crushed, 1 ml Tri Reagent was added and total RNA was isolated according to the manufacture's protocol. RNA samples were treated with RNase-free DNase I for 30 minutes at 37° C. and RNA quality and yield was verified on 1.2% formaldehyde agarose gel. First-strand cDNA was prepared from 0.5 μg total RNA as template and 0.8 μM (dT)12GC, (dT)12CC or oligo(dT)18 as a primer, using Superscript amplification kit. DD-PCR (differential display-PCR) was carried out in 20 μl total volume, and included 0.8 μM of one of the 3′ primers (dT)12GC, (dT)12CC or (dT)12, the arbitrary 5′ primer 5′-GGACAGCTTC-3′, 2.5 μM dNTP, 2.5 mM MgCl2, 2 μCi α-^33P-[dATP] (3000 Ci/mM), cDNA prepared from 50 ng total RNA, and 2.5 units of Taq DNA polymerase. […] An aliquot (6 μl) was analysed on a denatured DNA sequencing gel. […]

mGAT2 = experiment: Semi-quantitative RT-PCR of brain mRNA of MDMA-treated mice
mGAT1 [4] = experiment: as above; settings: for Increase of mGAT1 expression, estimated by scanning: MDMA 10 mg/kg i.p., 2 hr, GAPDH as standard
MC1 cDNA = experiment: DD-PCR analysis of brain mRNA of MDMA-treated mice; set-up: key to Intensity of MC1 cDNA band, MDMA, F. Cortex / Intensity of MC1 cDNA band, MDMA, MidBrain: − (lowest); ++ (highest); settings: 2 hr
Experimental: as §1
as §2, with “Ten μl of the supernatant was used as template to re-amplify the band of interest, with the same primers and PCR conditions described for DD-PCR except that 25 μM dNTP and no isotopes were used. Ten μl of the PCR reaction was run on a 2% agarose gel. The band of the predicted size was excised, purified with DNA extraction kit, and cloned into pGEM-T Easy Vector. Plasmid DNA from successful clones was purified with Plasmid Mini Kit and subjected for sequencing (Biological Services, Weizmann Institute of Science). Sequence data were compared with GeneBank (NCBI).” left out

[5] = MDMA one i.p. injection, 10 mg/kg, frontal cortex
[6] = both frontal cortex and midbrain, MDMA 10 mg/kg i.p.

CNC(C)Cc1ccc2c(c1)OCO2 (stereo not shown) [MDMA, 3,4-Methylenedioxymethamphetamine]
MDMA-induced changes of MC2, MG2 and MG4 expression (MC2, MG2 and MG4 cDNAs): 1.5-2.2 fold | Intensity of MG5 cDNA band, MDMA, F. Cortex (MG5 cDNA; frontal cortex): − | Intensity of MG5 cDNA band, MDMA, MidBrain (MG5 cDNA; midbrain): − | Intensity of MG3 cDNA band, MDMA, F. Cortex (MG3 cDNA; frontal cortex): − | Intensity of MG3 cDNA band, MDMA, MidBrain (MG3 cDNA; midbrain): − | Intensity of MG2 cDNA band, MDMA, F. Cortex (MG2 cDNA): ++ | Intensity of MC2 cDNA band, MDMA, MidBrain (MC2 cDNA): ++ | Increase of mGAT4 mRNA level (mGAT4 [1]; frontal cortex): 4.6 fold | Return of mGAT4 increase to control levels (mGAT4 [1]; frontal cortex): partially | Increase of mGAT4 mRNA level (mGAT4 [1]; midbrain): 1.7 fold | Return of mGAT4 increase to control levels (mGAT4 [1]; midbrain): completely | GAT1 protein, fold of control (mGAT1 protein; frontal cortex): 1.3 fold | GAT1 protein, fold of control (mGAT1 protein; midbrain): 1.0 fold | Induction of GAT1 protein upon MDMA treatment (mGAT1 protein; SERT −/− mice): no significant induction | Increase of GAT1 immunoreactivity (mGAT1 protein; frontal cortex): 2.1 fold | Increase of GAT1 immunoreactivity (mGAT1 protein; midbrain): 2.4 fold | Increase in mGAT4/GAPDH ratio compared with controls (mGAT4 [2]): 1.52 fold | Increase of GAPDH level (GAPDH): 19% | GAPDH level after MDMA treatment (real-time PCR amount) (GAPDH; control 514×10^−5 pmole): 0.00612 pmol | Net increase in mGAT1 levels (corrected for GAPDH) (mGAT1 [3]): 5.2 fold | mGAT1 expression after MDMA treatment (real-time PCR amount) (mGAT1 [3]; control 3.43×10^−5 pmole): 0.000211 pmol | Intensity of G1 cDNA band, MDMA, F. Cortex (G1 cDNA (mGAT1); [5]): ++ | Change of intensity of cDNA G1 in MDMA-treated mice (FIG. 1C) (G1 cDNA (mGAT1); [6]): increased | Effect on mGAT2 expression (mGAT2; MDMA 10 mg/kg i.p., 2 hr, frontal cortex and midbrain): insignificant effect | mGAT2 expression in time course (mGAT2; from 2 hours to 7 days after treatment): did not change | Increase of mGAT1 expression, estimated by scanning (mGAT1 [4]; frontal cortex): 1.58 fold | Increase of mGAT1 expression, estimated by scanning (mGAT1 [4]; midbrain): 1.74 fold | Time for which MDMA effect on mGAT1 expression sustained (mGAT1 [4]; time course 2 hours-7 days after treatment): 7 days | Intensity of MC1 cDNA band, MDMA, F. Cortex (MC1 cDNA; [5]): − | Intensity of MC1 cDNA band, MDMA, MidBrain (MC1 cDNA; MDMA one i.p. injection, 10 mg/kg, midbrain): − | Change of cDNA band MC1 in MDMA-treated mice (FIG. 1B) (MC1 cDNA; [6]): profound decrease
